PMC7194404, “Arg-type dihydroflavonol 4-reductase genes from the fern Dryopteris erythrosora play important roles in the biosynthesis of anthocyanins” (PLoS ONE, 2020)

Assays:
Assay in all cases: HPLC of anthocyanidin formed from product, crude E. coli extract
Format in all cases: biochemical
Settings in all cases: 0.8 mM substrate, 1.6 mM NADPH, 50 mM Tris-HCl pH 7.0, 30 °C, 30 min
DeDFR2 = molecular target: T1, DeDFR2 (Dryopteris erythrosora, UniProt A0A5P8I1W3)
T1 construct: gene DFR2
T1 sequence (A0A5P8I1W3 1-341): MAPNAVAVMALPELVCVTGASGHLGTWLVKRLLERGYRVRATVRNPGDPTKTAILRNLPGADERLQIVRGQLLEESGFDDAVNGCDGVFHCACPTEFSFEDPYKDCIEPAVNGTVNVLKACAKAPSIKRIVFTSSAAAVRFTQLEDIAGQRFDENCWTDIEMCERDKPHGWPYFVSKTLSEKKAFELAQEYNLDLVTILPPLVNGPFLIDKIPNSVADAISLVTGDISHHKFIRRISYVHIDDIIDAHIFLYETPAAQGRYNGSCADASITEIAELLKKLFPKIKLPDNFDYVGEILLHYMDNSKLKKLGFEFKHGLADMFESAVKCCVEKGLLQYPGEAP

DeDFR1 = molecular target: T2, DeDFR1 (Dryopteris erythrosora, UniProt A0A5P8I1X0)
T2 construct: gene DFR1
T2 sequence (A0A5P8I1X0 1-328): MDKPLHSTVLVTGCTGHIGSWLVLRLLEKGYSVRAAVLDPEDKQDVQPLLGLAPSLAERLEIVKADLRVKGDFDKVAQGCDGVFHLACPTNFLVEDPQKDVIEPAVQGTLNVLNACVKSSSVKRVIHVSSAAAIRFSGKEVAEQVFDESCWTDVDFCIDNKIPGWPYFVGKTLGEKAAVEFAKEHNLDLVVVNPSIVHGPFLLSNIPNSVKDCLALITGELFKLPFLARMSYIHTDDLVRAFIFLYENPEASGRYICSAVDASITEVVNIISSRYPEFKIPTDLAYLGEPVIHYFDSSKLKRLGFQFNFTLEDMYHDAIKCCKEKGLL

AtDFR = molecular target: T3, AtDFR (Arabidopsis thaliana, UniProt P51102)
T3 construct: gene DFRA; pET28a-AtDFR, E. coli BL21(DE3), crude soluble extract
T3 sequence (P51102 1-382): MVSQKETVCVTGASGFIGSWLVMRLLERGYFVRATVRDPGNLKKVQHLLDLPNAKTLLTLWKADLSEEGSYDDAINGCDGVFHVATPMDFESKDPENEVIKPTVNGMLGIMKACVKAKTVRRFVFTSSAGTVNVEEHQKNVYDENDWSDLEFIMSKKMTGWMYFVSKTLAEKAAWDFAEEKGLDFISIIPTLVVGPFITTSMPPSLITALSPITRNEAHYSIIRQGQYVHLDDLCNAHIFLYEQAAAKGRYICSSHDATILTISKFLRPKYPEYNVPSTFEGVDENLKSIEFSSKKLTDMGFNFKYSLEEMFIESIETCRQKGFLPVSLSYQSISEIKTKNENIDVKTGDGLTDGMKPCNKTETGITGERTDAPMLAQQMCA

Row | SMILES | HPLC of anthocyanidin formed from product, crude E. coli extract (DeDFR2) | HPLC of anthocyanidin formed from product, crude E. coli extract (DeDFR1) | HPLC of anthocyanidin formed from product, crude E. coli extract (AtDFR)
1 | O=C1c2c(O)cc(O)cc2O[C@H](c2ccc(O)cc2)[C@H]1O [DHK, dihydrokaempferol] | DeDFR1 and DeDFR2 had the ability to catalyze the DHK and DHQ reaction | DeDFR1 and DeDFR2 had the ability to catalyze the DHK and DHQ reaction | 
2 | O=C1c2c(O)cc(O)cc2O[C@H](c2cc(O)c(O)c(O)c2)[C@H]1O [DHM, dihydromyricetin] |  |  | all three dihydroflavonols could be converted to pink anthocyanins
3 | O=C1c2c(O)cc(O)cc2O[C@H](c2ccc(O)c(O)c2)[C@H]1O [DHQ, dihydroquercetin] | DeDFR1 and DeDFR2 had the ability to catalyze the DHK and DHQ reaction | DeDFR1 and DeDFR2 had the ability to catalyze the DHK and DHQ reaction | all three dihydroflavonols could be converted to pink anthocyanins
